# In PMC9271885 (eBioMedicine, 2022):
# pEC50: −log10 of the molar value. Where “and” joins values, the source holds several entries; their conditions need not be identical. Identical values can stand only once.
# How the values were obtained:
# SARS-CoV-2 [1] = assay: microbe, parasite or virus in culture; assay type: cell-based; details: Severe acute respiratory syndrome coronavirus 2, 48 h; Caco-2 cells, viral RNA, 2 days incubation
# SARS-CoV-2 [2] = assay: Hamster model of SARS-CoV-2 infection, intranasal NTZ treatment (lung, plasma, nasal turbinates); assay type: in vivo, Syrian hamsters; parameters: Lung Infectious titers / Lung Viral RNA yields / Plasmatic viral RNA yields / Nasal Turbinates Infectious titers / Nasal Turbinates Viral RNA yields: unit not given here
# SARS-CoV-2 [3] = details: Vero E6 cells at 48 h post-infection; read-out: 50% effective concentration (EC50); cited from earlier work
# SARS-CoV-2 [4] = assay: Lung histopathological changes in infected hamsters (cumulative score, grade of severity); assay type: in vivo, Syrian hamsters
# Method: The anatomo-histological study was implemented as previously described.[24]^,[26] Briefly, lungs were collected after intratracheal instillation of 4% (w/v) formaldehyde solution, and then fixed 72h at room temperature with a 4% (w/v) formaldehyde solution before being embedded in paraffin. Tissue sections of 3.5µm were stained with hematoxylin-eosin (H&E) and blindly analyzed by a certified veterinary pathologist. Microscopic examination was done using a Nikon Eclipse E400 microscope. Different anatomic compartments were examined (1) for bronchial and alveolar walls, a score of 0 to 4 was assigned based on severity of inflammation; (2) regarding alveoli, a score of 0 to 2 was assigned based on presence and severity of hemorrhagic necrosis; (3) regarding vessel changes (leucocytic accumulation in vascular wall or in endothelial compartment), absence or presence was scored 0 or 1 respectively. A cumulative score was then calculated and assigned to a grade of severity (see Supplementary Table 4).
# Groups of 4 hamsters, intranasally infected with 10^4 TCID50 of SARS-CoV-2, were orally treated at a dose of 500mg/kg/day BID for 4 days (0, 1, 2 and 3 dpi) (Figure 4a). Untreated hamsters (group of 4 animals) received the suspension vehicle BID. Animals were sacrificed at 5 dpi and a cumulative score from 0 to 10 (taking into account severity of inflammation, alveolar hemorrhagic necrosis and vessel lesions) was calculated and then assigned to a grade of severity (0=normal; 1=mild; 2=moderate; 3=marked and 4=severe; details in Supplementary Data 4).
# [5] = NTZ emulsion 2.8mg/kg/day TID intranasal, 3 dpi, first experiment
# [6] = Nitazoxanide IN 2.8mg/kg/day TID, inoculum 104 TCID50, sacrifice day 3, Figure 5, individual animals
# [7] = Nitazoxanide IN 2.8mg/kg/day TID, inoculum 104 TCID50, sacrifice day 3, Figure SF 2, individual animals
# [8] = nitazoxanide 500mg/kg/day per os BID, day of sacrifice 5, individual animals
compound,measurement,setting,value
"CC(=O)Oc1ccccc1C(=O)Nc1ncc([N+](=O)[O-])s1 [NTZ, Nitazoxanide]",EC90,SARS-CoV-2 [1],1750 nM
same,"viral replication in clarified lung homogenates, plasma or nasal turbinates vs untreated","SARS-CoV-2 [2]; NTZ 2.8mg/kg/day TID intranasal, repeated independent experiment",no significant differences
same,infectious titers in clarified lung homogenates vs untreated,SARS-CoV-2 [2]; [5],significant increase
same,infectious titers in nasal turbinates vs untreated,SARS-CoV-2 [2]; [5],no significant differences
same,viral RNA load in nasal turbinates vs untreated,SARS-CoV-2 [2]; [5],significant reduction
same,viral RNA yields in clarified lung homogenates vs untreated,SARS-CoV-2 [2]; [5],No significant differences
same,viral RNA yields in plasma vs untreated,SARS-CoV-2 [2]; [5],No significant differences
same,Lung Infectious titers,SARS-CoV-2 [2]; [6],7.738 and 7.565 and 7.260 and 7.126 and 7.436 and 7.154
same,Lung Viral RNA yields,SARS-CoV-2 [2]; [6],8.897 and 8.809 and 8.599
same,Nasal Turbinates Infectious titers,SARS-CoV-2 [2]; [6],2.483 and 2.551 and 3.472 and 4.082 and 3.115 and 4.229
same,Nasal Turbinates Viral RNA yields,SARS-CoV-2 [2]; [6],4.363 and 4.565 and 5.134 and 5.523 and 5.262 and 5.603
same,Plasmatic viral RNA yields,SARS-CoV-2 [2]; [6],3.551 and 4.595 and 4.938 and 4.386 and 5.492 and 4.672
same,Lung Infectious titers,SARS-CoV-2 [2]; [7],6.420 and 6.814 and 6.658 and 6.401 and 6.100 and 6.859
same,Lung Viral RNA yields,SARS-CoV-2 [2]; [7],7.102 and 7.087
same,Nasal Turbinates Infectious titers,SARS-CoV-2 [2]; [7],3.220 and 2.494 and 2.987 and 4.228 and 2.922 and 3.399
same,Nasal Turbinates Viral RNA yields,SARS-CoV-2 [2]; [7],5.240 and 5.486 and 5.403 and 6.486 and 5.764 and 5.350
same,pEC50,SARS-CoV-2 [3],5.67
same,histopathological cumulative scores in lungs vs untreated,"SARS-CoV-2 [4]; NTZ 500mg/kg/day BID oral for 4 days, sacrificed at 5 dpi",no significant difference
same,Histologic scores Bronchitis,SARS-CoV-2 [4]; [8],4 and 3
same,Histologic scores Endothelitis / Vasculitis,SARS-CoV-2 [4]; [8],1
same,Histologic scores Hemorrhagic necrosis,SARS-CoV-2 [4]; [8],0 and 1
same,Histologic scores Interstitial pneumonia,SARS-CoV-2 [4]; [8],4 and 3
same,Histologic scores Total score,SARS-CoV-2 [4]; [8],9 and 10 and 8 and 7
same,Histologic scores Grade,"SARS-CoV-2 [4]; nitazoxanide 500mg/kg/day per os BID, day of sacrifice 5, individual animals, grade printed as number",4 and 3
